Activity calls are given as the source filed them.
Legend:
Candida albicans = assay: Antimicrobial activity against Candida albicans by agar dilution method; assay type: functional, organism-based
Klebsiella aerogenes = assay: Antimicrobial activity against Enterobacter aerogenes by agar dilution method; assay type: functional, organism-based
[1] = biological target: Mu-type opioid receptor (Rattus norvegicus) (UniProt P33535); assay: Displacement of [3H]DAMGO from rat mu opioid receptor expressed in GH3 cells; assay type: cell-based
Sequence of Mu-type opioid receptor (Rattus norvegicus) (P33535 whole entry): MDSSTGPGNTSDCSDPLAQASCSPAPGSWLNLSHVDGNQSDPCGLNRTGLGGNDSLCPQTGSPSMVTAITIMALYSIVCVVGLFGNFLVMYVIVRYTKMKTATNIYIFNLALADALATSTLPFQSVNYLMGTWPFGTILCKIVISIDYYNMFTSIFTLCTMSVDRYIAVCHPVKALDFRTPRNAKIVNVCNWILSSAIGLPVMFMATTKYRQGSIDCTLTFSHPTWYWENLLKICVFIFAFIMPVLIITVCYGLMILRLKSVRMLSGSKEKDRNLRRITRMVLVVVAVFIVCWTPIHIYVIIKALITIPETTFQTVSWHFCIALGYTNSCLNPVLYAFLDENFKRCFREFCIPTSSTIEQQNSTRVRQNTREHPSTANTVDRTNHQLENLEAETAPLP

Bacillus subtilis = assay: Antimicrobial activity against Bacillus subtilis by agar dilution method; assay type: functional, organism-based
Staphylococcus aureus = assay: Antimicrobial activity against Staphylococcus aureus by agar dilution method; assay type: functional, organism-based
Escherichia coli = assay: Antimicrobial activity against Escherichia coli by agar dilution method; assay type: functional, organism-based
Bel-7402 = assay: Cytotoxicity against human BEL-7402 cells by SRB method; assay type: functional, cell-based
HL-60 = assay: Cytotoxicity against human HL60 cells by MTT assay; assay type: functional, cell-based
A549 = assay: Cytotoxicity against human A549 cells by SRB method; assay type: functional, cell-based
P388 = assay: Cytotoxicity against mouse P388 cells by MTT assay; assay type: functional, cell-based

Measured: Activity

CCCCCCCCCC(=O)O[C@H]1[C@H](O[C@@H]2[C@@H](O)[C@H]3OC(=O)CCCCCCCCCC[C@H](CCCCC)O[C@@H]4O[C@H](C)[C@H](O)[C@H](O)[C@H]4O[C@@H]3O[C@H]2C)O[C@@H](C)[C@H](O[C@@H]2O[C@@H](C)[C@H](OC(=O)C(C)C)[C@@H](OC(=O)/C=C/c3ccccc3)[C@H]2O)[C@H]1O[C@@H]1O[C@@H](C)[C@H](O)[C@@H](O)[C@H]1O
inactive: all assays above

From ChEMBL document CHEMBL1151768, “Resin glycoside constituents of Ipomoea pes-caprae (beach morning glory)” (J Nat Prod, 2008)
